# Where two headings read alike, the source gives them in different places.
# Experiments:
# [1] = test system: E. coli Class A Tc^r (DI-299); type: cell-based; settings: drug alone; for MLC: kills 99.9%
# E. faecalis (Class M) = settings: result in words
# efflux protein = target: T1, efflux protein (Escherichia coli, UniProt P02980); test: everted membrane vesicle assay, blocking activity of 13-S-derivatives; type: biochemical
# T1 sequence (P02980 1-401): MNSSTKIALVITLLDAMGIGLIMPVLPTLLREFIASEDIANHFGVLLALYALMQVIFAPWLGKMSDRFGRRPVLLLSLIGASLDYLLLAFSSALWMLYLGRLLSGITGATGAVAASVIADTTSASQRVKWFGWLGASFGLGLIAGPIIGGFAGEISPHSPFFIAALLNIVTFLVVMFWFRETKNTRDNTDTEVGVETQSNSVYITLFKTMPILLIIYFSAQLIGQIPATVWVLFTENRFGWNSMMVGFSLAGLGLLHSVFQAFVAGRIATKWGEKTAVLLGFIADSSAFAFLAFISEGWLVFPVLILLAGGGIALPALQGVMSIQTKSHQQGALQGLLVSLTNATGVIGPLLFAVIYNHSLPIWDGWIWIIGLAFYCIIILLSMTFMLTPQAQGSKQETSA
# [2] = test system: E. coli Tc^s (MI 308-226); test: susceptibility testing MIC/MLC, drug alone; type: cell-based; settings: for MLC: kills 99.9%
# [3] = test system: tetracycline resistant (Class A) E. coli (strain D1-299); settings: in combination with tetracycline
# S. aureus Tc^r (RN4250) = type: cell-based
# [4] = test system: E. faecalis Tc^r(M) (ATCC09790r/TelM); type: cell-based; settings: drug alone; for MLC: kills 99.9%
# [5] = test system: E. faecalis Tc^r (L) ATCC9790r/Tell.); test: susceptibility testing MIC/MLC, drug alone; type: cell-based
# [6] = test system: E. faecalis Tc^s (ATCC9790r); test: susceptibility testing MIC/MLC, drug alone; type: cell-based
# [7] = test system: tetracycline resistant S. aureus; settings: in combination with tetracycline
# S. aureus 450 = test: susceptibility of tetracycline susceptible strains (MIC), C5 esters; type: cell-based; settings: S. aureus 450, susceptible strain, drug alone
# E. coli ML308 = test: as above; type: cell-based; settings: E. coli ML308, susceptible strain, drug alone
# E. faecalis ATCC 9790 = test: as above; type: cell-based; settings: E. faecalis ATCC 9790, susceptible strain, drug alone
# [8] = test system: E. coli Class B Tc^r (DI-209); type: cell-based; settings: drug alone; for MLC: kills 99.9%
# E. coli DI-299 (Tet A) = test: MIC/MLC chart, analog with and without doxycycline; type: cell-based; set-up: key to growth/killing, Analog + Doxy / growth/killing, Doxy Control / growth/killing, Analog Control / growth in MIC/MLC chart: +=growth; 0=no growth (MIC); ↓=killing; ? =99.9% killing (MLC); □=no growth, but no microbiologic testing;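 also: bacterial growth inhibition and killing in broth, each agent tested alone or combined with doxycycline across two-fold serial dilutions, overnight incubation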
# E. faecalis 211 (Tet M) = test: MIC/MLC chart, analog with and without doxycycline; type: cell-based
# [9] = Tc^r(RN4250), drug alone, kills 99.9%
# [10] = E. faecalis bearing the Tet L determinant
# [11] = Tc^r (L) ATCC9790r/Tell.), drug alone
# [12] = Tc^r (L) ATCC9790r/Tell.), drug alone, kills 99.9%
# [13] = Analog Control: analog alone .195 μg/ml
# [14] = analog .195 μg/ml + doxycycline 1.56 μg/ml
# [15] = analog .195 μg/ml + doxycycline 3.12 μg/ml
# [16] = analog .195 μg/ml + doxycycline 6.25 μg/ml
smiles,measurement,setting,value
CN(C)C1C(O)=C(C(N)=O)C(=O)C2(O)C(O)=C3C(=O)c4c(O)cccc4C(CSC4CCCCC4)C3C(O)C12 (stereo not shown) [Cyclohexyl],MIC,[1],100 ± 0.26 µg
same,MLC,[1],>200 µg
same,synergistic activity with tetracycline,E. faecalis (Class M),"little, if any synergistic activity"
same,Ki,efflux protein,716 nM
same,MIC,"[2]; Tc^s (MI 308-226), drug alone",60 ± 10 µg
same,MLC,"[2]; Tc^s (MI 308-226), drug alone",120 µg
same,concentrations of analogue and tetracycline that inhibited growth,[3],≤ 5 μg/ml
same,MIC,"S. aureus Tc^r (RN4250); Tc^r(RN4250), drug alone",1.5 ± 0.5 µg
same,MLC,S. aureus Tc^r (RN4250); [9],10 ± 4 µg
same,MIC,[4],2.5 ± 0.5 µg
same,MLC,[4],10 ± 0.25 µg
same,MLC,[5]; [10],8 ± 2 µg/mL
same,MIC,[5]; [11],1.5 ± 0.5 µg
same,MLC,[5]; [12],8 ± 2 µg
same,MIC,[6],1.25 ± 0.25 µg
same,combined dose of the two drugs to achieve MLC,[7],≤ 6 µg/mL
"CCCSCC1c2cccc(O)c2C(=O)C2=C(O)C3(O)C(=O)C(C(N)=O)=C(O)C(N(C)C)C3C(OC(=O)CC)C21 (stereo not shown) [Cmpd 8, 13-propylthio-5-proprionate-6-deoxy-tetracycline]",MIC,S. aureus 450,.3 µg/mL
same,MIC,E. coli ML308,20 µg/mL
same,MIC,E. faecalis ATCC 9790,2.5 µg/mL
"CCSCC1c2cccc(O)c2C(=O)C2=C(O)C3(O)C(=O)C(C(N)=O)=C(O)C(N(C)C)C3CC21 (stereo not shown) [Ethyl, 6-deoxy-13-(ethylmercapto) tetracycline]",MIC,[1],14 ± 4 µg
same,MLC,[1],45 ± 5 µg
same,MIC,"[2]; Tc^s (MI 308-226), drug alone",5 ± 0.25 µg
same,MLC,"[2]; Tc^s (MI 308-226), drug alone",50 µg
same,MIC,[2]; susceptible E. coli,5 µg/mL
same,concentrations of analogue and tetracycline that inhibited growth,[3],≤ 5 μg/ml
same,MIC,[4],25 ± 5 µg
same,MIC,[5]; [11],4 ± 1 µg
same,MIC,[6],1 ± 0.5 µg
same,MIC,[8],36 ± 16 µg
same,MLC,[8],50 ± 10 µg
"CN(C)C1C(O)=C(C(N)=O)C(=O)C2(O)C(O)=C3C(=O)c4c(O)cccc4C(CSCc4ccccc4)C3C(O)C12 (stereo not shown) [Benzyl, 6-deoxy-13-(benzylmercapto) tetracycline]",MIC,[1],45 ± 20 µg
same,MLC,[1],150 ± 50 µg
same,synergistic activity with tetracycline,E. faecalis (Class M),"little, if any synergistic activity"
same,Ki,efflux protein,1590 nM
same,MIC,"[2]; Tc^s (MI 308-226), drug alone",16 ± 5 µg
same,MLC,"[2]; Tc^s (MI 308-226), drug alone",25 ± 6 µg
same,MIC,"S. aureus Tc^r (RN4250); Tc^r(RN4250), drug alone",1 ± 0.25 µg
same,MLC,S. aureus Tc^r (RN4250); [9],10 ± 4 µg
same,MIC,[4],3.5 ± 1 µg
same,MLC,[4],18 ± 2 µg
same,MLC,[5]; [10],8 ± 2 µg/mL
same,MIC,[5]; [11],0.75 ± 0.25 µg
same,MLC,[5]; [12],8 ± 2 µg
same,MIC,[6],0.5 ± 0.25 µg
same,MIC,[8],30 ± 0.25 µg
same,MLC,[8],90 ± 10 µg
same,combined dose of the two drugs to achieve MLC,[7],≤ 6 µg/mL
"CCC(=O)OC1C2C(=C(O)C3(O)C(=O)C(C(N)=O)=C(O)C(N(C)C)C13)C(=O)c1c(O)cccc1C2CSC1CCCC1 (stereo not shown) [Cmpd 5, 13-cyclopentylthio-5-proprionate-6-deoxy tetracycline]",growth in MIC/MLC chart,E. coli DI-299 (Tet A); Analog Control: analog alone 1.56 μg/ml,+
same,growth in MIC/MLC chart,E. coli DI-299 (Tet A); Analog Control: analog alone 3.12 μg/ml,+
same,growth in MIC/MLC chart,E. coli DI-299 (Tet A); Analog Control: analog alone 6.25 μg/ml,+
same,growth in MIC/MLC chart,E. coli DI-299 (Tet A); Analog Control: analog alone 12.5 μg/ml,+
same,growth in MIC/MLC chart,E. coli DI-299 (Tet A); Analog Control: analog alone 25.0 μg/ml,+
same,growth in MIC/MLC chart,E. coli DI-299 (Tet A); Analog Control: analog alone 50.00 μg/ml,+
same,growth in MIC/MLC chart,E. coli DI-299 (Tet A); [13],+
same,growth in MIC/MLC chart,E. coli DI-299 (Tet A); Analog Control: analog alone .39 μg/ml,+
same,growth in MIC/MLC chart,E. coli DI-299 (Tet A); Analog Control: analog alone .78 μg/ml,+
same,growth in MIC/MLC chart,E. coli DI-299 (Tet A); analog 1.56 μg/ml + doxycycline 1.55 μg/ml,+
same,growth in MIC/MLC chart,E. coli DI-299 (Tet A); analog 1.56 μg/ml + doxycycline 3.1 μg/ml,+
same,growth in MIC/MLC chart,E. coli DI-299 (Tet A); analog 1.56 μg/ml + doxycycline 6.2 μg/ml,+
same,growth in MIC/MLC chart,E. coli DI-299 (Tet A); analog 3.12 μg/ml + doxycycline 1.53 μg/ml,+
same,growth in MIC/MLC chart,E. coli DI-299 (Tet A); analog 3.12 μg/ml + doxycycline 3.05 μg/ml,+
same,growth in MIC/MLC chart,E. coli DI-299 (Tet A); analog 3.12 μg/ml + doxycycline 6.1 μg/ml,+
same,growth in MIC/MLC chart,E. coli DI-299 (Tet A); analog 6.25 μg/ml + doxycycline 3.0 μg/ml,+
same,growth in MIC/MLC chart,E. coli DI-299 (Tet A); analog 6.25 μg/ml + doxycycline […],+
same,growth in MIC/MLC chart,E. coli DI-299 (Tet A); analog 12.5 μg/ml + doxycycline 2.8 μg/ml,+
same,growth in MIC/MLC chart,E. coli DI-299 (Tet A); analog 12.5 μg/ml + doxycycline […],+
same,growth in MIC/MLC chart,E. coli DI-299 (Tet A); analog 25 μg/ml + doxycycline 2.4 μg/ml,+
same,growth in MIC/MLC chart,E. coli DI-299 (Tet A); analog 25 μg/ml + doxycycline […],+
same,growth in MIC/MLC chart,E. coli DI-299 (Tet A); analog 50 μg/ml + doxycycline 1.56 μg/ml,+
same,growth in MIC/MLC chart,E. coli DI-299 (Tet A); analog 50 μg/ml + doxycycline .78 μg/ml,+
same,growth in MIC/MLC chart,E. coli DI-299 (Tet A); [14],+
same,growth in MIC/MLC chart,E. coli DI-299 (Tet A); [15],+
same,growth in MIC/MLC chart,E. coli DI-299 (Tet A); [16],+
same,growth in MIC/MLC chart,E. coli DI-299 (Tet A); analog .195 μg/ml + doxycycline 12.5 μg/ml,+
same,growth in MIC/MLC chart,E. coli DI-299 (Tet A); analog .195 μg/ml + doxycycline 25.0 μg/ml,+
same,growth in MIC/MLC chart,E. coli DI-299 (Tet A); analog .39 μg/ml + doxycycline 1.56 μg/ml,+
same,growth in MIC/MLC chart,E. coli DI-299 (Tet A); analog .39 μg/ml + doxycycline 3.12 μg/ml,+
same,growth in MIC/MLC chart,E. coli DI-299 (Tet A); analog .39 μg/ml + doxycycline 6.25 μg/ml,+
same,growth in MIC/MLC chart,E. coli DI-299 (Tet A); analog .39 μg/ml + doxycycline 12.5 μg/ml,+
same,growth in MIC/MLC chart,E. coli DI-299 (Tet A); analog .39 μg/ml + doxycycline 24.9 μg/ml,↓
same,growth in MIC/MLC chart,E. coli DI-299 (Tet A); analog .78 μg/ml + doxycycline 1.56 μg/ml,+
same,growth in MIC/MLC chart,E. coli DI-299 (Tet A); analog .78 μg/ml + doxycycline 3.12 μg/ml,+
same,growth in MIC/MLC chart,E. coli DI-299 (Tet A); analog .78 μg/ml + doxycycline 6.23 μg/ml,+
same,MLC of analog in combination,E. coli DI-299 (Tet A); with 5.9 μg/ml of doxycycline (Chart 8A),6.25 μg/ml
same,growth in MIC/MLC chart,E. faecalis 211 (Tet M); [13],+
same,growth in MIC/MLC chart,E. faecalis 211 (Tet M); [14],+
same,growth in MIC/MLC chart,E. faecalis 211 (Tet M); [15],+
same,growth in MIC/MLC chart,E. faecalis 211 (Tet M); [16],+
same,MIC,S. aureus 450,.4 µg/mL
same,MIC,E. coli ML308,20 µg/mL
same,MIC,E. faecalis ATCC 9790,.4 µg/mL
"CN(C)C1C(O)=C(C(N)=O)C(=O)C2(O)C(O)=C3C(=O)c4c(O)cccc4C(CSC4CCCC4)C3C(O)C12 (stereo not drawn) [Cyclopentyl, 13-cyclopentylthio-5-hydroxy-6-α-deoxy-tetracycline]",MIC,[1],40 ± 0.25 µg
same,MLC,[1],80 µg
same,synergistic activity with tetracycline,E. faecalis (Class M),"little, if any synergistic activity"
same,Ki,efflux protein,367 nM
same,MIC,"[2]; Tc^s (MI 308-226), drug alone",20 µg
same,MLC,"[2]; Tc^s (MI 308-226), drug alone",60 µg
same,concentrations of analogue and tetracycline that inhibited growth,[3],≤ 5 μg/ml
same,MIC,"S. aureus Tc^r (RN4250); Tc^r(RN4250), drug alone",2 ± 0.25 µg
same,MLC,S. aureus Tc^r (RN4250); [9],6 ± 2 µg
same,MLC,S. aureus Tc^r (RN4250); resistant S. aureus,6 ± 2 µg/mL
same,MIC,[4],3 ± 1 µg
same,MLC,[4],>16 µg
same,MIC,[5]; [11],1 ± 0.5 µg
same,MLC,[5]; [12],18 ± 2 µg
same,MIC,[6],1 ± 0.25 µg
same,MIC,[8],80 ± 40 µg
same,MLC,[8],100 ± 60 µg
same,combined dose of the two drugs to achieve MLC,[7],≤ 6 µg/mL

# Source: patent publication US7732429B2 (Trustees of Tufts College, priority 1994, dated 2010)
